According to patent US10752587B2, “Homobispiperidinyl derivatives as liver X receptor beta agonists, compositions and their use” (Merck Sharp & Dohme Corp., priority 2015, dated 2020):
Where two headings read alike, the source gives them in different places.

Experiments:
[1] = molecular target: T1, glutathione-S-transferase (GST) tagged LXRbeta LBD (ligand binding domain) (Homo sapiens, UniProt P55055); assay: LanthaScreen TR-FRET Liver X Receptor Coactivator Assay, co-activator recruitment to LXRbeta LBD; type: biochemical
T1 construct: purchased Invitrogen pv4658.pps
T1 sequence (P55055 222-460 limits assumed): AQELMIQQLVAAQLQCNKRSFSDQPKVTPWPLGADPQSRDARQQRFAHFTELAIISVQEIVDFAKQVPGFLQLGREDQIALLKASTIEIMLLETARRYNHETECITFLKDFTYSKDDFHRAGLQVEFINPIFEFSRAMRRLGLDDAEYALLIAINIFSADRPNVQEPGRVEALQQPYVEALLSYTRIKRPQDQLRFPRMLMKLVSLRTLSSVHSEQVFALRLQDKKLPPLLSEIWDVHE
Procedure, shortened: (§1)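 Readout is time-resolved FRET between a terbium anti-GST antibody bound to the LBD and a fluorescein-tagged coactivator peptide recruited on ligand binding. Plates were incubated at room temperature before reading. Potency (IP) and efficacy (Emax) are referenced to T0901317.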

[2] = molecular target: T2, glutathione-S-transferase (GST) tagged LXRalpha LBD (ligand binding domain) (Homo sapiens, UniProt Q13133); assay: LanthaScreen TR-FRET Liver X Receptor Coactivator Assay, co-activator recruitment to LXRalpha LBD; type: biochemical
T2 construct: purchased Invitrogen pv4655
T2 sequence (Q13133 209-447 limits assumed): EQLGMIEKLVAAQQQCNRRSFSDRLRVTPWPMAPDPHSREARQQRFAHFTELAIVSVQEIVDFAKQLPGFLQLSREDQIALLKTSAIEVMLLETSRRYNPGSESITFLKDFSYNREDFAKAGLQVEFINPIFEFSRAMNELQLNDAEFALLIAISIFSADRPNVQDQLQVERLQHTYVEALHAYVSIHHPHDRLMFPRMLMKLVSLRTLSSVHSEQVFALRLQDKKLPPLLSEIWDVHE
Procedure, shortened: as §1

[3] = efficacy at max dose, in relation to reference dual agonist T0901317, read-out: LXR beta Activity @ max dose (%)
[4] = potency (Inflection Point, IP), co-activator recruitment to LXRbeta LBD, in relation to T0901317, read-out: LXR beta IP
[5] = efficacy at max dose, in relation to reference dual agonist T0901317, read-out: LXR alpha Activity @ max dose (%)
[6] = potency (Inflection Point, IP), co-activator recruitment to LXRalpha LBD, in relation to T0901317, read-out: LXR alpha IP
[7] = co-activator recruitment to GST-LXRbeta LBD, TR-FRET, read-out: LXR beta IP (Inflection Point, potency)
[8] = efficacy in relation to reference dual agonist T0901317, read-out: LXR beta Activity @ max dose
[9] = co-activator recruitment to GST-LXRalpha LBD, TR-FRET, read-out: LXR alpha IP (Inflection Point, potency)
[10] = efficacy in relation to reference dual agonist T0901317, read-out: LXR alpha Activity @ max dose
[11] = potency (Inflection Point, IP), co-activator recruitment to LXRalpha LBD, in relation to T0901317

Compound | Emax [1, 3] [%] | EC50 [1, 4] [nM] | Emax [2, 5] [%] | EC50 [2, 6] [nM] | LXR alpha IP (nM) [2, 11] | further results
CN(C)C(=O)c1ccc(N2CCC(CC3CCN(C(=O)[C@](O)(c4ccccc4)C4CCCC4)CC3)CC2)nc1Cl [Example 7-98, 2-chloro-6-[4-({1-[(2R)-2-cyclopentyl-2-hydroxy-2-phenylacetyl]piperidin-4-yl}methyl)piperidin-1-yl]-N,N-dimethylpyridine-3-carboxamide] | – | – | – | – | – | EC50 ([1]; LXR beta IP (nM), potency (Inflection Point, IP), co-activator recruitment to LXRbeta LBD, in relation to T0901317): 74 nM; Emax ([1]; read-out: LXR beta Activity @ max dose (%)): 76%; EC50 ([2]; LXR alpha IP (nM), potency (Inflection Point, IP), co-activator recruitment to LXRalpha LBD, in relation to T0901317): 1090 nM; Emax ([2]; read-out: LXR alpha Activity @ max dose (%)): 19%
CN(C)C(=O)c1ccc(N2CCC(CC3CCN(C(=O)[C@](O)(c4cccc(C(F)(F)F)c4)C(F)(F)F)CC3)CC2)cc1 [Example 2-136, N,N-dimethyl-4-{4-[(1-{(2R)-3,3,3-trifluoro-2-hydroxy-2-[3-(trifluoromethyl)phenyl]propanoyl}piperidin-4-yl)methyl]piperidin-1-yl}benzamide] | 64 | 69 | 20 | 714 | – | –
CN(C)C(=O)c1ccc(N2CCC(CC3CCN(C(=O)[C@](O)(c4cc(F)cc(Cl)c4)C(F)(F)F)CC3)CC2)nc1Cl [Example 7-112, 2-chloro-6-[4-({1-[(2R)-2-(3-chloro-5-fluorophenyl)-3,3,3-trifluoro-2-hydroxypropanoyl]piperidin-4-yl}methyl)piperidin-1-yl]-N,N-dimethylpyridine-3-carboxamide] | 96 | 3 | 45 | 65 | – | –
CNC(=O)c1ccc(N2CCC(CC3CCN(C(=O)C(O)(c4cc(F)cc(F)c4)C(F)(F)F)CC3)CC2)nc1Cl (centres unmarked) [Example 7-133, 2-chloro-6-[4-({1-[2-(3,5-difluorophenyl)-3,3,3-trifluoro-2-hydroxypropanoyl]piperidin-4-yl}methyl)piperidin-1-yl]-N-methylpyridine-3-carboxamide] | 123 | 6 | 66 | 83 | – | –
NC(=O)c1ccc(N2CCC(CC3CCN(C(=O)C(O)(c4cc(F)cc(Cl)c4)C(F)(F)F)CC3)CC2)cc1Cl (centres unmarked) [Example 12-9, 2-chloro-4-[4-({1-[2-(3-chloro-5-fluorophenyl)-3,3,3-trifluoro-2-hydroxy-propanoyl]piperidin-4-yl}methyl)piperidin-1-yl]benzamide] | – | – | – | – | – | EC50 [1, 7]: 8 nM; Emax [1, 8]: 98%; EC50 [2, 9]: 47 nM; Emax [2, 10]: 52%
CN(C)C(=O)c1ccc(N2CCC(CC3CCN(C(=O)[C@](O)(c4cccc(N(C)C)c4)C(F)(F)F)CC3)CC2)cc1Cl [Example 2-98] | 20 | 8 | 0 | – | NO IP | –
CC(C)Oc1cccc(C(O)(C(=O)N2CCC(CC3CCN(c4ccc(C(=O)N(C)C)c(Cl)n4)CC3)CC2)C(F)(F)F)c1 (centres unmarked) [Example 7-76, 2-chloro-N,N-dimethyl-6-{4-[(1-{3,3,3-trifluoro-2-hydroxy-2-[3-(1-methylethoxy)phenyl]propanoyl}piperidin-4-yl)methyl]piperidin-1-yl}pyridine-3-carboxamide] | 56 | 10 | 10 | – | NO IP | –
CN(C)C(=O)c1ccc(N2CCC(CC3CCN(C(=O)c4c(F)cccc4F)CC3)CC2)cc1Cl [Example 2-8, 2-chloro-4-[4-({1-[(2,6-difluorophenyl)carbonyl]piperidin-4-yl}methyl)piperidin-1-yl]-N,N-dimethyl-benzamide] | 40 | 352 | 0 | – | NO IP | –
CN(C)C(=O)c1ccc(N2CCCN(CC3CCN(C(=O)C(O)(c4cccc(Cl)c4)C(F)(F)F)CC3)CC2)cc1Cl (centres unmarked) [Example 6-2, 2-chloro-4-[4-({1-[2-(3-chlorophenyl)-3,3,3-trifluoro-2-hydroxypropanoyl]piperidin-4-yl}methyl)-1,4-diazepan-1-yl]-N,N-dimethylbenzamide] | 98 | 533 | 14 | – | NO IP | –
CN(C)C(=O)c1ccc(N2CCC(CC3CCN(C(=O)C(C)(C)c4ccccc4)CC3)CC2)cc1Cl [Example 2-1, 2-chloro-N,N-dimethyl-4-(4-((1-(2-methyl-2-phenylpropanoyl)piperidin-4-yl)methyl)piperidin-1-yl)benzamide] | 59 | 157 | 5 | – | NO IP | –
COc1cc(F)cc([C@@](O)(C(=O)N2CCC(C)(CC3CCN(c4ccc(C(=O)N(C)C)c(Cl)c4)CC3)CC2)C(F)(F)F)c1 [Example 2-49, 2-chloro-N,N-dimethyl-4-[4-({4-methyl-1-[(2R)-3,3,3-trifluoro-2-(3-fluoro-5-methoxyphenyl)-2-hydroxy-propanoyl]piperidin-4-yl}methyl)piperidin-1-yl]benzamide] | 59 | 6 | 5 | – | NO IP | –
Cc1cc(N2CCC(CC3CCN(C(=O)[C@](O)(c4ccccc4)C(F)(F)F)CC3)CC2)ncc1C(=O)N(C)C [Example 7-3, N,N,4-trimethyl-6-[4-({1-[(2R)-3,3,3-trifluoro-2-hydroxy-2-phenylpropanoyl]piperidin-4-yl}methyl)piperidin-1-yl]pyridine-3-carboxamide] | 71 | 153 | 23 | 2180 | – | –
CN(C)C(=O)c1ccc(N2CCC(CC3CN(S(=O)(=O)c4ccccc4)C3)CC2)cc1Cl [Example 13-1, 2-chloro-N,N-dimethyl-4-(4-((1-(phenylsulfonyl)azetidin-3-yl)methyl)piperidin-1-yl)benzamide] | – | – | – | – | – | EC50 [1, 7]: 61 nM; Emax ([1]; read-out: LXR beta Activity @ max dose): 73%; EC50 [2, 9]: 2480 nM; Emax ([2]; read-out: LXR alpha Activity @ max dose): 37%
O=C(c1ccc(N2CCC(CC3CCN(C(=O)[C@](O)(c4ccccc4)C(F)(F)F)CC3)CC2)cc1Cl)N1CCC[C@H]1CO [Example 4-3, (2R)-3-(4-{[1-(3-chloro-4-{[(2S)-2-(hydroxy-methyl)pyrrolidin-1-yl]carbonyl}phenyl)piperidin-4-yl]methyl}piperidin-1-yl)-1,1,1-trifluoro-3-oxo-2-phenylpropan-2-ol] | 63 | 5 | 30 | 50 | – | –
CCOc1cccc([C@@](O)(C(=O)N2CC(CC3CCN(c4ccc(C(=O)NC)c(Cl)c4)CC3)C2)C(F)(F)F)c1 [Example 7-39, 2-chloro-4-[4-({1-[(2R)-2-(3-ethoxyphenyl)-3,3,3-trifluoro-2-hydroxypropanoyl]azetidin-3-yl}methyl)piperidin-1-yl]-N-methylbenzamide] | 59 | 91 | 0 | – | NO IP | –
CN(C)C(=O)c1ccc(N2CCC(CC3CCN(C(=O)C(O)(c4ccsc4)C(F)(F)F)CC3)CC2)cc1Cl (centres unmarked) [Example 2-30, 2-chloro-N,N-dimethyl-4-(4-{[1-(3,3,3-trifluoro-2-hydroxy-2-thiophen-3-ylpropanoyl)piperidin-4-yl]methyl}piperidin-1-yl)benzamide] | 64 | 36 | 25 | 821 | – | –
CN(C)C(=O)c1ccc(N2CCC(CC3CCN(S(=O)(=O)c4ccc(F)cc4)CC3)CC2)cc1Cl [Example 13-14, 2-chloro-4-[4-({1-[(4-fluorophenyl)sulfonyl]-piperidin-4-yl}methyl)-piperidin-1-yl]-N,N-dimethylbenzamide] | – | – | – | – | – | EC50 [1, 7]: 497 nM; Emax [1, 8]: 58%; EC50 [2, 9]: 2730 nM; Emax [2, 10]: 24%
